Reference: ChEMBL document CHEMBL5046233, “Nitroxoline and its derivatives are potent inhibitors of metallo-β-lactamases” (Eur J Med Chem, 2022)
Activity calls are given as the source filed them. No cut-off for these calls is given here.

Key:
[1] = Inhibition of recombinant NDM-1 (unknown origin) using fluorocillin as substrate at 10 uM incubated for 30 mins by fluorescence based assay; details: Bacteria
[2] = Inhibition of recombinant NDM-1 (unknown origin) using fluorocillin as substrate at 3 uM incubated for 30 mins by fluorescence based assay; details: Bacteria
Bacteria = test: Inhibition of recombinant IMP-1 (unknown origin) using fluorocillin as substrate at 30 uM incubated for 30 mins by fluorescence based assay
Escherichia coli [3] = test: Antimicrobial activity against Escherichia coli T2544 expressing VIM-1 assessed as inhibition of bacterial growth by CLSI protocol based broth microdilution assay; assay type: functional
Escherichia coli [4] = test: Potentiation of imipenem-induced antibacterial activity against Escherichia coli T2359 expressing NDM-1 assessed as fold change in imipenem MIC at 32 mg/L by CLSI protocol based broth microdilution assay; assay type: functional
Escherichia coli [5] = test: Potentiation of imipenem-induced antibacterial activity against Escherichia coli T2544 expressing VIM-1 assessed as fold change in imipenem MIC at 32 mg/L by CLSI protocol based broth microdilution assay; assay type: functional
Klebsiella pneumoniae [6] = test: Potentiation of piperacillin-induced antibacterial activity against Klebsiella pneumoniae clinical isolate T2301 expressing NDM-1 assessed as piperacillin MIC at 32 mg/L by CLSI protocol based broth microdilution assay; assay type: functional
Escherichia coli [7] = test: Potentiation of piperacillin-induced antibacterial activity against Escherichia coli clinical isolate T2228 expressing VIM-1 assessed as piperacillin MIC at 32 mg/L by CLSI protocol based broth microdilution assay; assay type: functional
Escherichia coli [8] = test: Potentiation of cefuroxime-induced antibacterial activity against Escherichia coli clinical isolate T2228 expressing VIM-1 assessed as cefuroxime MIC at 32 mg/L by CLSI protocol based broth microdilution assay; assay type: functional
Escherichia coli [9] = test: Potentiation of meropenem-induced antibacterial activity against Escherichia coli clinical isolate T2228 expressing VIM-1 assessed as meropenem MIC at 32 mg/L by CLSI protocol based broth microdilution assay; assay type: functional
Escherichia coli [10] = test: Potentiation of gentamicin-induced antibacterial activity against Escherichia coli clinical isolate T2228 expressing VIM-1 assessed as gentamicin MIC at 32 mg/L by CLSI protocol based broth microdilution assay; assay type: functional
Escherichia coli [11] = test: Potentiation of imipenem-induced antibacterial activity against Escherichia coli T2351 expressing NDM-5 assessed as fold change in imipenem MIC at 32 mg/L by CLSI protocol based broth microdilution assay; assay type: functional
Citrobacter freundii [12] = test: Potentiation of imipenem-induced antibacterial activity against Citrobacter freundii T2354 expressing VIM-4 assessed as fold change in imipenem MIC at 32 mg/L by CLSI protocol based broth microdilution assay; assay type: functional
Enterobacter cloacae = test: Potentiation of imipenem-induced antibacterial activity against Enterobacter cloacae T2353 expressing VIM-1 assessed as fold change in imipenem MIC at 32 mg/L by CLSI protocol based broth microdilution assay; assay type: functional
Klebsiella pneumoniae [13] = test: Potentiation of imipenem-induced antibacterial activity against Klebsiella pneumoniae T2216 expressing VIM-1 assessed as fold change in imipenem MIC at 32 mg/L by CLSI protocol based broth microdilution assay; assay type: functional
Pseudomonas aeruginosa [14] = test: Potentiation of imipenem-induced antibacterial activity against Pseudomonas aeruginosa T2217 expressing VIM-2 assessed as fold change in imipenem MIC at 32 mg/L by CLSI protocol based broth microdilution assay; assay type: functional
Pseudomonas aeruginosa [15] = test: Potentiation of imipenem-induced antibacterial activity against Pseudomonas aeruginosa T2229 expressing SPM-1 assessed as fold change in imipenem MIC at 32 mg/L by CLSI protocol based broth microdilution assay; assay type: functional
Escherichia coli [16] = test: Potentiation of imipenem-induced antibacterial activity against Escherichia coli T2433 expressing OXA-48 assessed as fold change in imipenem MIC at 32 mg/L by CLSI protocol based broth microdilution assay; assay type: functional
Escherichia coli [17] = test: Bactericidal activity against Escherichia coli T2359 expressing VIM-1 assessed as killing rate at 0.5 XMIC measured after 24 hrs in presence of imipenem by time-kill assay relative to control; assay type: functional
Escherichia coli [18] = test: Antimicrobial activity against Escherichia coli T2359 expressing VIM-1 assessed as assessed as inhibition of bacterial growth at 0.5XMIC measured after 24 hrs by time-kill assay; assay type: functional, organism-based
Escherichia coli [19] = test: Potentiation of imipenem-induced antibacterial activity against Escherichia coli T2359 expressing NDM-1 assessed as imipenem MIC at 32 mg/L by CLSI protocol based broth microdilution assay; assay type: functional
Klebsiella pneumoniae [20] = test: Potentiation of imipenem-induced antibacterial activity against Klebsiella pneumoniae clinical isolate T2301 expressing NDM-1 assessed as imipenem MIC at 32 mg/L by CLSI protocol based broth microdilution assay; assay type: functional
Escherichia coli [21] = test: Potentiation of imipenem-induced antibacterial activity against Escherichia coli clinical isolate T2228 expressing VIM-1 assessed as imipenem MIC at 32 mg/L by CLSI protocol based broth microdilution assay; assay type: functional
Escherichia coli [22] = test: Synergistic antibacterial activity against Escherichia coli T2544 expressing VIM-1 assessed as fractional inhibitory concentration index in presence of imipenem by checkerboard assay; assay type: functional
Klebsiella pneumoniae [23] = test: Antimicrobial activity against Klebsiella pneumoniae T2301 expressing NDM-1 assessed as inhibition of bacterial growth at 0.5XMIC for 6 hrs by CLSI protocol based broth microdilution assay; assay type: functional, organism-based
Escherichia coli [24] = test: Antimicrobial activity against Escherichia coli T2359 expressing VIM-1 assessed as inhibition of bacterial growth at 0.5XMIC for 6 hrs by CLSI protocol based broth microdilution assay; assay type: functional, organism-based
HUVEC = test: Cytotoxicity against HUVEC cells assessed as late apoptosis by analysing number of sub-diploid events at 0.03 to 100 ug/mL measured after 24 hrs by propidium iodide staining based flow cytometry analysis; assay type: toxicity, cell-based; details: human, dose 0.03-100 µg/ml
Citrobacter freundii [25] = test: Potentiation of imipenem-induced antibacterial activity against Citrobacter freundii T2354 expressing VIM-4 assessed as imipenem MIC at 32 mg/L by CLSI protocol based broth microdilution assay; assay type: functional
Pseudomonas aeruginosa [26] = test: Potentiation of imipenem-induced antibacterial activity against Pseudomonas aeruginosa T2357 expressing VIM-1 assessed as imipenem MIC at 32 mg/L by CLSI protocol based broth microdilution assay; assay type: functional
Pseudomonas aeruginosa [27] = test: Potentiation of imipenem-induced antibacterial activity against Pseudomonas aeruginosa T2282 expressing VIM-2 assessed as imipenem MIC at 32 mg/L by CLSI protocol based broth microdilution assay; assay type: functional
Pseudomonas aeruginosa [28] = test: Potentiation of imipenem-induced antibacterial activity against Pseudomonas aeruginosa T2283 expressing VIM-2 assessed as imipenem MIC at 32 mg/L by CLSI protocol based broth microdilution assay; assay type: functional
Pseudomonas aeruginosa [29] = test: Potentiation of imipenem-induced antibacterial activity against Pseudomonas aeruginosa T2229 expressing SPM-1 assessed as imipenem MIC at 32 mg/L by CLSI protocol based broth microdilution assay; assay type: functional
Escherichia coli [30] = test: Potentiation of imipenem-induced antibacterial activity against Escherichia coli T2435 expressing KPC-2 assessed as imipenem MIC at 32 mg/L by CLSI protocol based broth microdilution assay; assay type: functional
Citrobacter freundii [31] = test: Potentiation of imipenem-induced antibacterial activity against Citrobacter freundii T2431 expressing KPC-3 assessed as imipenem MIC at 32 mg/L by CLSI protocol based broth microdilution assay; assay type: functional

## N#CCN(Cc1ccccc1)Cc1cc([N+](=O)[O-])c2cccnc2c1O
[1]
  inhibition: 88%
[2]
  inhibition: 68%
Bacteria
  inhibition: 98%
Escherichia coli [3]
  MIC: > 65 ng/mL
Escherichia coli [4]
  fold change (FC): 256
Escherichia coli [5]
  fold change (FC): 64
Klebsiella pneumoniae [6]
  MIC: 2050 ng/mL
Escherichia coli [7]
  MIC: 1000 ng/mL
Escherichia coli [8]
  MIC: 2 ng/mL
Escherichia coli [9]
  MIC: 125 ng/mL
Escherichia coli [10]
  MIC: 2 ng/mL
Escherichia coli [11]
  fold change (FC): 8
Citrobacter freundii [12]
  fold change (FC): 8
Enterobacter cloacae
  fold change (FC): 8
Klebsiella pneumoniae [13]
  fold change (FC): 8
Pseudomonas aeruginosa [14]
  fold change (FC): 16
Pseudomonas aeruginosa [15]
  fold change (FC): 16
Escherichia coli [16]
  fold change (FC): 1
Escherichia coli [17]
  Activity: >99.9%
Escherichia coli [18]
  Activity: inactive
Escherichia coli [19]
  MIC: 0.5 ng/mL
Klebsiella pneumoniae [20]
  MIC: 250 ng/mL
Escherichia coli [21]
  MIC: 1 ng/mL
Escherichia coli [22]
  fractional inhibitory concentration index (FICI): 0.265
Klebsiella pneumoniae [23]
  inhibition: Active
Escherichia coli [24]
  inhibition: Active
HUVEC
  Activity: Toxic
Citrobacter freundii [25]
  MIC: 250 ng/mL
Pseudomonas aeruginosa [26]
  MIC: 8 ng/mL
Pseudomonas aeruginosa [27]
  MIC: 8 ng/mL
Pseudomonas aeruginosa [28]
  MIC: 1 ng/mL
Pseudomonas aeruginosa [29]
  MIC: 32 ng/mL
Escherichia coli [30]
  MIC: 4 ng/mL
Citrobacter freundii [31]
  MIC: 4 ng/mL
